Experiments:
[1] = Metabolites of heptylphysostigmine (dog urine after oral dosing; canine liver microsomes); assay type: in vivo; settings: mammalian metabolites
Description: The foregoing metabolites were originally isolated from dog urine following oral dosing with trimethyl-1,3a,8-hexahydro-1,2,3,3a,8,8a-pyrrol-[2,3-b]indole-5(3aS,8aR)heptylcarbamate at dosage levels of 1 mg/kg/day. Some of these compounds were also isolated from an incubation mixture of canine liver microsomes and trimethyl-1,3a,8-hexahydro-1,2,3,3a,8,8a-pyrrol[2,3-b]indole-5(3aS,8aR)-heptylcarbamate at a concentration of 10 μM in the presence of MgCl2 and NADPH in a buffer of approximately neutral pH at approximately 30°-40° C. The compounds were isolated from the biological matrix by selective solid phase or solvent extraction and purified by liquid chromatography (LC) using different mobile phase conditions. The procedures and the results of these experiments are noted in Examples 1-3.
Incubation of heptylphysostigmine with dog liver microsomes or 9,000×g supernatant fractions was performed to generate metabolites. The incubation mixture contained 100 μmoles of potassium phosphate, pH 7.4, 3 μmoles of MgCl2, 0.5 μmole of NADPH, 1 mg microsomal or 4 mg S9 protein and 10 nmols of ^3 H-heptylphysostigmine in a final volume of 1.0 ml. The incubations were carried out at 37° C. and 120 rpm for 10, 30 or 60 minutes. At the end of the incubation period, metabolites were extracted with a 2:1 mixture of ethyl acetate and acetone. […]

[2] = Somani et al., 1989; cited from earlier work
[3] = background statement, cited from earlier work

SMILES	metabolites discovered [1]	metabolites reported [2]	half-life of effect [3]	side-effects ([3]; particularly towards the digestive system)
CCCCCCCNC(=O)Oc1ccc2c(c1)[C@]1(C)CCN(C)[C@@H]1N2C [heptylphysostigmine, trimethyl-1,3a,8-hexahydro-1,2,3,3a,8,8a-pyrrol[2,3-b]indole-5(3aS,8aR) heptylcarbamate]	eseroline and eseroline glucuronide were also discovered among the mammalian metabolites			
CNC(=O)Oc1ccc2c(c1)[C@]1(C)CCN(C)[C@@H]1N2C [physostigmine, trimethyl-1,3a,8-hexahydro-1,2,3,3a,8,8a-pyrrol[2,3-b]indole-5(3aS,8aR)methylcarbamate]		metabolized to eseroline and at least three other unknown metabolites	short half-life of effect	severe dose-limiting side-effects

— patent publication US5206260A, “Hexahydropyrrolo[2,3-b]indole derivatives” (priority 1991, dated 1993)
